Results taken from US10525133B2, “Aqueous composition comprising at least one protein and one solubilizing agent, preparation thereof and uses thereof” (ADOCIA, priority 2014, dated 2020).

Assays:
[1] = test system: Nanogam (human immunoglobulins); experiment: Reduction in aggregation of Nanogam at its isoelectric point (light scattering at 12.8°, Malvern NanoZS); format: physicochemical; conditions: 40 mg/ml human immunoglobulins, pH 8.5 (pI), relative to Nanogam at pH 4.3
Experimental: The Nanogam formulation is a formulation of human immunoglobulins at 50 mg/ml and at pH 4.3 containing various IgG subclasses (IgG1: 54-70%, IgG2: 29-45%, IgG3: 1-4%, IgG4: 0-0.5%, IgA: at most 6 μg/ml). […] A test with various compounds is therefore carried out at the isoelectric point in order to identify the compounds which make it possible to reduce this aggregation phenomenon.
A commercial solution of Nanogam at 50 mg/ml is used. […] Mixing between the solution of Nanogam and one of the solutions of compound is carried out in order to obtain a solution containing 40 mg/ml of human immunoglobulins and the desired concentration of compound. The pH of the various solutions is adjusted to pH 8.5 by adding hydrochloric acid or sodium hydroxide depending on the pH achieved following the mixing between the compound of interest and the solution of human immunoglobulins.
The mixtures are then analyzed by light scattering on a Malvern NanoZS instrument.
The scattered intensities are measured at 12.8°.

[2] = molecular target: T1, human insulin (Homo sapiens, UniProt P01308); experiment: Solubilization of human insulin at its isoelectric point (visual appearance, soluble fraction by RP-HPLC); format: physicochemical; set-up: key to Visual appearance: Cloudy: If the solution is cloudy, the compound at the concentration tested does not allow total solubilization of human insulin at its isoelectric point; Clear: If the solution is clear, the compound allows total solubilization of human insulin at the concentration tested; conditions: 100 IU/ml human insulin, pH 5.3 (pI)
T1 construct: A solution of human insulin at 500 IU/ml is prepared
Experimental: Human insulin has an isoelectric point (pI) of 5.3. […] A test of solubility at the pI of human insulin with various compounds is carried out. […] Solutions of compounds at various concentrations in water are prepared as described in examples B1 to B4. […] The pH of the various solutions is adjusted to pH 5.3 by adding hydrochloric acid or sodium hydroxide depending on the pH achieved following the mixing between the compound and the solution of human insulin. The appearance of the solution is documented. […] If the solution is clear, the compound allows total solubilization of human insulin at the concentration tested. In addition, the mixtures are centrifuged at 4000 rpm for 10 minutes in a Hereaus Biofuge Pico centrifuge (Rotor #3328) and then filtered through 0.22 μm in order to remove the precipitate. The resulting soluble fractions are then assayed by RP-HPLC (column: Sunfire C18, Waters ref:186003417; mobile phase: sodium phosphate/acetonitrile gradient; detection: UV at 276 nm) with an external insulin range in order to quantify the percentage of soluble insulin at the pI.

[3] = at pH 5.3 (pI); cited from earlier work
[4] = compound 180 mmol/l, molar ratio compound/Nanogam 675
[5] = compound 150 mmol/l, molar ratio compound/insulin 250
[6] = compound 300 mmol/l, molar ratio compound/insulin 500
[7] = compound 750 mmol/l, molar ratio compound/insulin 1250
[8] = compound 120 mmol/l, molar ratio compound/insulin 200
[9] = compound 75 mmol/l, molar ratio compound/insulin 125

T1 sequence (P01308 25-54 limits assumed): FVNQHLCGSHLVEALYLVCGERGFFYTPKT
T1 sequence (P01308 90-110 limits assumed): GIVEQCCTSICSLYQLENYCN

O=C(O)Cc1ccccc1 [Phenylacetic acid]
Iscat 12.8° standardized [1, 4]: 20.082

Human insulin control: Human insulin at 100 IU/ml, pH 5.3, without solubilizing compound
Soluble insulin recovery (%) ([2]; control without compound): 11% | Visual appearance ([2]; control without compound): Cloudy | Concentration at which human insulin precipitates [3]: greater than or equal to 10 IU/ml

OC[C@H]1O[C@@](CO)(O[C@H]2O[C@H](CO)[C@@H](O)[C@H](O)[C@H]2O)[C@@H](O)[C@@H]1O [Sucrose, reference compound]
Soluble insulin recovery (%) [2, 5]: 67% | Visual appearance [2, 5]: Cloudy | Soluble insulin recovery (%) [2, 6]: 35% | Visual appearance [2, 6]: Cloudy

O=C(CO)N[C@@H](Cc1ccccc1)C(=O)O [Molecule A1, N-(2-hydroxyacetyl)-L-phenylalanine]
Soluble insulin recovery (%) [2, 6]: 100% | Visual appearance [2, 6]: Clear | Iscat 12.8° standardized ([1]; compound 85 mmol/l, molar ratio compound/Nanogam 320): 23.5

O=C(O)C(O)c1ccccc1 (stereo not drawn) [Mandelic acid]
Soluble insulin recovery (%) [2, 7]: 100% | Visual appearance [2, 7]: Clear | Iscat 12.8° standardized ([1]; compound 27.5 mmol/l, molar ratio compound/Nanogam 675): 22.15

CC(=O)O [Acetic acid, reference compound]
Iscat 12.8° standardized [1, 4]: 200.18

O=C(CO)N[C@@H](Cc1c[nH]c2ccccc12)C(=O)O [Molecule A2, N-(2-hydroxyacetyl)-L-tryptophan]
Soluble insulin recovery (%) [2, 8]: 100% | Visual appearance [2, 8]: Clear

CC(Oc1ccccc1)C(=O)O (stereo not drawn) [2-Phenoxypropionic acid]
Iscat 12.8° standardized [1, 4]: 6.38

N[C@@H](Cc1c[nH]cn1)C(=O)O [Histidine, L-histidine, reference compound]
Soluble insulin recovery (%) [2, 9]: 48% | Visual appearance [2, 9]: Cloudy | Iscat 12.8° standardized ([1]; compound 40 mmol/l, molar ratio compound/Nanogam 150): 80.82
